Test results: ChEMBL document CHEMBL1201862, “PubChem BioAssay data set” (2004)
The source made the active and inactive calls.

What was measured:
Estrogen receptor beta [1] = molecular target: T1, Estrogen receptor beta (Homo sapiens, UniProt Q92731); test: ERβ–SRC-3 coactivator interaction inhibitors, confirmation, orthogonal assay, biochemical, ELISA, streptavidin-HRP readout (AID 1060)
Estrogen receptor beta [2] = molecular target: T1, Estrogen receptor beta
[3] = M. tuberculosis H37Rv growth inhibitors, H37Rv strain (AID 1626); format: functional
[4] = Luminescence Cell-Based Dose Response HTS to Identify Inhibitors of 5'UTR Stem-Loop Driven Prion Protein mRNA Translation in H4 Neuroglioblastoma Cells. [Related pubchem assays: 1827 (Project Summary), 1813 (Primary HTS)]; format: functional
[5] = molecular target: Luciferin 4-monooxygenase (Photinus pyralis, UniProt P08659); test: Counter Screen for Luciferase-based Assay Positives. [Related pubchem assays: 620, 618, 411 ]
Sequence of Luciferin 4-monooxygenase (P08659 whole entry): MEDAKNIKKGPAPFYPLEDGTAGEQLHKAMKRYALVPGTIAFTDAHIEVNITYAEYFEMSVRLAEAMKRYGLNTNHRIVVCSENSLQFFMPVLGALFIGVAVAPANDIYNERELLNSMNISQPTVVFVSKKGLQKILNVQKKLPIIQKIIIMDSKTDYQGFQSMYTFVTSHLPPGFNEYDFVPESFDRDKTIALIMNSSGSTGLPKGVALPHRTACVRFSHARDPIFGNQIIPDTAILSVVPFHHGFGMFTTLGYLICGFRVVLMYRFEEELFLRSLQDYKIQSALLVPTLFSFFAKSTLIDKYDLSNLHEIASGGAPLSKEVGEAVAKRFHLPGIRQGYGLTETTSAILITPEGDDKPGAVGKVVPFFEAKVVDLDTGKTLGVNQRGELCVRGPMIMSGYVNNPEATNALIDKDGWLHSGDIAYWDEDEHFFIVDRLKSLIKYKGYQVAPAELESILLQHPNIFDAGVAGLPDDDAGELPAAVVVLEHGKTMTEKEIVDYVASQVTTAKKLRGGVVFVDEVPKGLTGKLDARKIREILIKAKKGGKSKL

HT-1080 = test: cytotoxicity in HT1080 fibrosarcoma cells, cell-based, fluorescence readout (AID 620); format: functional; settings: Homo sapiens
[6] = inhibitors of SNCA 5'UTR-driven reporter translation, confirmation, H4 neuroglioma cells, luminescence (AID 1988); format: functional, cell-based
Insulin-degrading enzyme = molecular target: T2, Insulin-degrading enzyme (Homo sapiens, UniProt P14735); test: Dose Response: Fluorescence polarization-based cell-based high throughput dose response assay for inhibitors of insulin-degrading enzyme (IDE). [Related pubchem assays: 434962 (Primary screen (IDE inhibitors in singlicate)), 449730 (Counterscreen (Cytotoxicity in triplicate)), 435028 (Confirmation (IDE inhibitors in triplicate)), 434984 (Summary …; format: functional
T2 sequence (P14735 whole entry): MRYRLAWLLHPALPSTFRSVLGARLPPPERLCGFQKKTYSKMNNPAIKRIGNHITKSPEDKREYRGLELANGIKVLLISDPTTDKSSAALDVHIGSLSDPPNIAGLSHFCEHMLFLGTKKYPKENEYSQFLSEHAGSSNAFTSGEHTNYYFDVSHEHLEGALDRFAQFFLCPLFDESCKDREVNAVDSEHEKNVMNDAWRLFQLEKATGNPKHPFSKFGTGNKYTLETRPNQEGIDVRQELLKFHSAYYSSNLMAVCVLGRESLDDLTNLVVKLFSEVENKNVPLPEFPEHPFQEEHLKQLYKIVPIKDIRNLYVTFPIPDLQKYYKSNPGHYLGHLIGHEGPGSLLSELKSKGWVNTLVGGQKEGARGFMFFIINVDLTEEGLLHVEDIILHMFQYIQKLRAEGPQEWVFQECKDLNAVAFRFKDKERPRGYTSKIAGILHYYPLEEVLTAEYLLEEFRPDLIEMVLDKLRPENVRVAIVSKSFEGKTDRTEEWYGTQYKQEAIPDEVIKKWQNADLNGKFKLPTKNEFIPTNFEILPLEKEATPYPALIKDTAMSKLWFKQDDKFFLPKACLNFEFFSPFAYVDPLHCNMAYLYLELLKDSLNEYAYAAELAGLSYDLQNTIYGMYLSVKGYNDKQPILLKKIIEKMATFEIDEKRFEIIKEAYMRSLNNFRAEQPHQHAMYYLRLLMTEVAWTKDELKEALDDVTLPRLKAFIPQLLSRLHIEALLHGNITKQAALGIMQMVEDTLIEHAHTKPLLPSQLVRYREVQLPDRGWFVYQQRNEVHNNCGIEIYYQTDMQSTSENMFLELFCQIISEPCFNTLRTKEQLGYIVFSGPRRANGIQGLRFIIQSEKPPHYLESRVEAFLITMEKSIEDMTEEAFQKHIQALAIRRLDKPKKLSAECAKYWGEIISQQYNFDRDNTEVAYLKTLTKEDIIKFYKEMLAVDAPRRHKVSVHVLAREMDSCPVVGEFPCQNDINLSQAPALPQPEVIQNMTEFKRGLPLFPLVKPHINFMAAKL

[7] = molecular target: T3, Zinc finger protein mex-5 (Caenorhabditis elegans, UniProt Q9XUB2); test: MEX-5/TCR-2 RNA interaction inhibitors, dose response, biochemical, C. elegans, fluorescence polarization (AID 1960)
T3 sequence (Q9XUB2 whole entry): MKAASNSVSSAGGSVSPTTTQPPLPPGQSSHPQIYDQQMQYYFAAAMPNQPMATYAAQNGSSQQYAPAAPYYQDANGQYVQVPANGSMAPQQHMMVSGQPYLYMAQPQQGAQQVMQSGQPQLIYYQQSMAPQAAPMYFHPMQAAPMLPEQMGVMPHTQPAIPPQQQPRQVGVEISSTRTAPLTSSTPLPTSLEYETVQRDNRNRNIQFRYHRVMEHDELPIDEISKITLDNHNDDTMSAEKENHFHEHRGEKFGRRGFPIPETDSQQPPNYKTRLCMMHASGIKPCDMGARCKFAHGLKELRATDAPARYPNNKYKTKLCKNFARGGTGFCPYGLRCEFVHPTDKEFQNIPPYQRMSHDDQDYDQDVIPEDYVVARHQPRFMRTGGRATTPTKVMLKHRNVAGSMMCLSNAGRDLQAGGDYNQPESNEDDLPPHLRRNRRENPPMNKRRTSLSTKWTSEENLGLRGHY

[8] = Counterscreen for IDE inhibitors: Luminescence-based cell-based high throughput dose response assay to identify compounds that are cytotoxic to HEK cells. [Related pubchem assays: 434962 (Primary screen (IDE inhibitors in singlicate)), 449730 (Counterscreen (Cytotoxicity in triplicate)), 435028 (Confirmation (IDE inhibitors in triplicate)) …; format: functional; settings: HEK293
[9] = molecular target: T4, RNA-binding protein pos-1 (Caenorhabditis elegans, UniProt G5EF15); test: inhibitors of POS-1/mex-3 RNA binding, dose response, biochemical, fluorescence polarization (AID 1964);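 also: purified POS-1 fused to maltose binding protein made in E. coli; potency of compounds blocking POS-1 binding to fluorescent RNA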
T4 sequence (G5EF15 whole entry): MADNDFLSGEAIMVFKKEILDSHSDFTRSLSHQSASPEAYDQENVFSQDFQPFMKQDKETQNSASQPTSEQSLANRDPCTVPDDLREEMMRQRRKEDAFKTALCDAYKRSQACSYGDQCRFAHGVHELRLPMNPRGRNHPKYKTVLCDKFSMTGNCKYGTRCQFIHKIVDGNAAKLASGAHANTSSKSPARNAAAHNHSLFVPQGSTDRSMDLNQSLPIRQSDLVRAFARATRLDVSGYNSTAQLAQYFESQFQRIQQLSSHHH

[10] = molecular target: Neurotensin receptor type 1 (Homo sapiens, UniProt P30989); format: functional;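 also: Image-based confirmatory dose-response assay measuring agonist activity at NTR1; NTR1-expressing U2OS osteosarcoma cells imaged for beta-arrestin GFP spot formation; agonist potency where compounds increase beta-arrestin recruitment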
Sequence of Neurotensin receptor type 1 (P30989 whole entry): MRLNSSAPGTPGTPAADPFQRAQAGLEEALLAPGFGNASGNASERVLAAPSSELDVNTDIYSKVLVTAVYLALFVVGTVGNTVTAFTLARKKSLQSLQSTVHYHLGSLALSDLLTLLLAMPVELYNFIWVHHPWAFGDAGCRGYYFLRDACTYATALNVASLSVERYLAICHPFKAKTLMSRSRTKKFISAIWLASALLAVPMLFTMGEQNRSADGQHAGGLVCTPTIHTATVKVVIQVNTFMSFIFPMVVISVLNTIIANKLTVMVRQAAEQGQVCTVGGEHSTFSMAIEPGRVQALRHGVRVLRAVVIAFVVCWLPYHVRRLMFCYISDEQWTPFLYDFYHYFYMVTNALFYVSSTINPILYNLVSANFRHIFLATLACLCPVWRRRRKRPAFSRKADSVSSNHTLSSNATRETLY

[11] = cytotoxicity toward NIH3T3 fibroblasts, dose response, counter-screen, cell-based, ATP luminescence, mouse fibroblasts (AID 2010); format: functional;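 also: cells exposed to compound for about 90 hours before reading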
[12] = Luminescence Cell-Based Dose Retest to Confirm Inhibitors of Cancer Stem Cells. [Related pubchem assays (depositor defined):AID2717, AID2721]; format: functional; settings: Homo sapiens
[13] = inhibitors of intracellular T. cruzi replication, confirmation, NIH3T3 host cells, beta-gal luminescence (AID 2044); format: functional, cell-based;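 also: intracellular parasites grown in NIH/3T3 mouse fibroblasts as host cells; luminescent beta-galactosidase reporter signal from transgenic T. cruzi replicating inside host cells; inhibitors lower the luminescence signal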
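For AC50 in this document: cells exposed to compound for roughly 70 hours or longer before luminescence read.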

T1 sequence (Q92731 whole entry): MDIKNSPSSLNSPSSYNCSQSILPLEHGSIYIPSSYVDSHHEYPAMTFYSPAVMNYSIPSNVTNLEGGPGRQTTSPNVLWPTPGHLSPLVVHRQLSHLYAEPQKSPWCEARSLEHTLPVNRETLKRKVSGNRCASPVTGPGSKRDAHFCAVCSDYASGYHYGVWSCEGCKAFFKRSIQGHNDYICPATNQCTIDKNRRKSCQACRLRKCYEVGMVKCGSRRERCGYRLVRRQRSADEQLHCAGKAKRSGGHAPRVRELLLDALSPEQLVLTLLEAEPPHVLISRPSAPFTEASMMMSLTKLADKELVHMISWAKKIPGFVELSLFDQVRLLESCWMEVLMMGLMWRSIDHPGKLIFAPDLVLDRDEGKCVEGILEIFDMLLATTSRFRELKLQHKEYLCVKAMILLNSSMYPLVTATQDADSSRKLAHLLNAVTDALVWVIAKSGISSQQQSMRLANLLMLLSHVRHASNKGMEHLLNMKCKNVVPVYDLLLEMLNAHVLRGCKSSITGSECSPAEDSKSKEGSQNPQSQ

For `CNC(=O)c1c(NC(=O)c2nc3ccccc3s2)sc2c1CCC2`, the IC50 (Estrogen receptor beta [1]) was < 0.023 µM (not active) and the IC50 (Estrogen receptor beta [2]) was > 50 µM (not active).

With `O=C(CCc1nc(-c2cccs2)no1)Nc1cnc2ccccc2c1` the IC50 [3] was > 100 µM (active).

For `Cn1ccnc1SCc1cn2cc(Br)ccc2n1`, the EC50 [4] was 7.92 µM (active), the EC50 [5] was 38.1 µM (active) and the EC50 (HT-1080) was > 50 µM (not active). The EC50 [6] was 7.22 µM (inconclusive).

For `O=C1CCC/C(=N/NC(=O)c2sc3ccccc3c2Cl)C1`, the IC50 (Insulin-degrading enzyme) was 26.3 µM (not active), the EC50 [7] was 20.5 µM (active) and the IC50 [8] was > 55.7 µM (not active). For the same molecule, the EC50 [9] was 22 µM (active).

With `Cc1nccc(-c2ccc(-n3c(C)ccc3C)cc2)n1` the IC50 [3] was > 100 µM (active).

For `Oc1ccc(-c2cc(-c3ccc(O)cc3)nc(-c3ccccc3)n2)cc1`, the EC50 [10] was 19.4 µM (active), the EC50 [11] was > 60 µM (not active) and the AC50 [12] was 1.81 µM (active). For the same molecule, the EC50 [13] was 3.86 µM (active).
